The NIST ThermoML archive (doi:10.1007/s10765-008-0444-7)
± gives the expanded uncertainty stated by the source.

Assays:
[1] = xn = mol fraction of the nth substance listed; details: 101 kPa, Liquid; for viscosity: Capillary tube (Ostwald / Ubbelohde) method; for mass density: Pycnometric method
[2] = 101.3 kPa, Liquid; for viscosity: Capillary tube (Ostwald / Ubbelohde) method; for mass density: Pycnometric method

CO [methanol] + Brc1ccccc1
[1], x1 = 1
Details | mass density [kg/m3] | viscosity [mPa·s]
293 K | 791.1 ± 3.5 | 0.591 ± 0.016
303 K | 781.9 ± 3.5 | 0.518 ± 0.014
313 K | 772.4 ± 3.4 | 0.45 ± 0.013

Clc1ccccc1 [chlorobenzene]
[2]
Details | mass density [kg/m3] | viscosity [mPa·s]
293 K | 1105.8 ± 6.8 | 0.8432 ± 0.023
303 K | 1095 ± 6.7 | 0.721 ± 0.02
313 K | 1082 ± 6.6 | 0.6247 ± 0.017

Clc1ccccc1 [chlorobenzene] + CO
[1]
Details | mass density, 293 K [kg/m3] | mass density, 303 K [kg/m3] | mass density, 313 K [kg/m3] | viscosity, 293 K [mPa·s] | viscosity, 303 K [mPa·s] | viscosity, 313 K [mPa·s]
x2 = 0 | 1105.8 ± 6.8 | 1095 ± 6.7 | 1082 ± 6.6 | 0.8432 ± 0.023 | 0.721 ± 0.02 | 0.6247 ± 0.017
x2 = 0.2808 | 1066.5 ± 6.4 | 1056 ± 6.3 | 1044 ± 6.1 | 0.8312 ± 0.023 | 0.7121 ± 0.02 | 0.6157 ± 0.017
x2 = 0.4676 | 1029.2 ± 5.9 | 1019 ± 5.8 | 1007 ± 5.7 | 0.8209 ± 0.023 | 0.6924 ± 0.019 | 0.6041 ± 0.017
x2 = 0.601 | 993.9 ± 5.5 | 983.7 ± 5.4 | 972.5 ± 5.3 | 0.8018 ± 0.022 | 0.6821 ± 0.019 | 0.5832 ± 0.016
x2 = 0.7009 | 960.5 ± 5.2 | 950.4 ± 5.1 | 939.4 ± 5 | 0.7699 ± 0.021 | 0.6572 ± 0.018 | 0.5569 ± 0.015
x2 = 0.7783 | 928.8 ± 4.8 | 918.9 ± 4.8 | 908.1 ± 4.7 | 0.7256 ± 0.02 | 0.6093 ± 0.017 | 0.5296 ± 0.015
x2 = 0.8405 | 898.5 ± 4.5 | 888.8 ± 4.5 | 878.3 ± 4.4 | 0.692 ± 0.019 | 0.5828 ± 0.016 | 0.51 ± 0.014
x2 = 0.8913 | 869.7 ± 4.3 | 860.1 ± 4.2 | 849.9 ± 4.1 | 0.6766 ± 0.019 | 0.5672 ± 0.016 | 0.4961 ± 0.014
x2 = 0.9335 | 842.3 ± 4 | 832.9 ± 3.9 | 822.9 ± 3.9 | 0.6424 ± 0.018 | 0.5401 ± 0.015 | 0.4701 ± 0.013
x2 = 0.9693 | 816.2 ± 3.8 | 806.8 ± 3.7 | 797.1 ± 3.6 | 0.6194 ± 0.017 | 0.528 ± 0.015 | 0.4591 ± 0.013

CO [methanol] + Clc1ccccc1
[1], x1 = 1
Details | mass density [kg/m3] | viscosity [mPa·s]
293 K | 791.1 ± 3.5 | 0.591 ± 0.016
303 K | 781.9 ± 3.5 | 0.518 ± 0.014
313 K | 772.4 ± 3.4 | 0.45 ± 0.013

CO [methanol]
[2]
Details | mass density [kg/m3] | viscosity [mPa·s]
293 K | 791.1 ± 3.5 | 0.591 ± 0.016
303 K | 781.9 ± 3.5 | 0.518 ± 0.014
313 K | 772.4 ± 3.4 | 0.45 ± 0.013

Brc1ccccc1 [bromobenzene]
[2]
Details | mass density [kg/m3] | viscosity [mPa·s]
293 K | 1497 ± 12 | 1.164 ± 0.032
303 K | 1483 ± 12 | 0.9844 ± 0.027
313 K | 1467 ± 12 | 0.8786 ± 0.024

Brc1ccccc1 [bromobenzene] + CO
[1]
Details | mass density, 293 K [kg/m3] | mass density, 303 K [kg/m3] | mass density, 313 K [kg/m3] | viscosity, 293 K [mPa·s] | viscosity, 303 K [mPa·s] | viscosity, 313 K [mPa·s]
x2 = 0 | 1497 ± 12 | 1483 ± 12 | 1467 ± 12 | 1.164 ± 0.032 | 0.9844 ± 0.027 | 0.8786 ± 0.024
x2 = 0.3528 | 1381 ± 11 | 1367 ± 10 | 1352 ± 10 | 1.124 ± 0.031 | 0.9306 ± 0.026 | 0.8142 ± 0.022
x2 = 0.5504 | 1280 ± 9.1 | 1267 ± 9 | 1253 ± 8.8 | 1.008 ± 0.028 | 0.8356 ± 0.023 | 0.7399 ± 0.02
x2 = 0.6775 | 1192 ± 7.9 | 1179 ± 7.8 | 1166 ± 7.6 | 0.8873 ± 0.024 | 0.742 ± 0.021 | 0.6444 ± 0.018
x2 = 0.7657 | 1114 ± 6.9 | 1102 ± 6.8 | 1089 ± 6.7 | 0.8144 ± 0.022 | 0.6962 ± 0.019 | 0.6019 ± 0.017
x2 = 0.8305 | 1045 ± 6.1 | 1033 ± 6 | 1021 ± 5.9 | 0.7619 ± 0.021 | 0.6467 ± 0.018 | 0.5686 ± 0.016
x2 = 0.8802 | 983 ± 5.4 | 972.1 ± 5.3 | 960.7 ± 5.2 | 0.7235 ± 0.02 | 0.617 ± 0.017 | 0.5451 ± 0.015
x2 = 0.9195 | 927.6 ± 4.8 | 917.2 ± 4.8 | 906.4 ± 4.7 | 0.686 ± 0.019 | 0.5891 ± 0.016 | 0.513 ± 0.014
x2 = 0.9552 | 871.4 ± 4.3 | 861.5 ± 4.2 | 851.1 ± 4.1 | 0.657 ± 0.018 | 0.5651 ± 0.016 | 0.49 ± 0.014
x2 = 0.9778 | 832.3 ± 3.9 | 822.8 ± 3.8 | 812.9 ± 3.8 | 0.6312 ± 0.017 | 0.5344 ± 0.015 | 0.4773 ± 0.013
